The text below walks through data of US4656184A, “2-(N-substituted hydrazone), thiazoles useful as anti-inflammatories” (priority 1982, dated 1987).

The target of data set [1] is T1, 5-lipoxygenase of the peritoneal leukocytes of rabbits (PMNs) (Oryctolagus cuniculus, UniProt G1SNX0).
T1 construct: metabolism of ^14 C-AA in the peritoneal PMNs of rabbits; endogenous in cells; host or cells: rabbit peritoneal polymorphonuclear leukocytes (suspension)
T1 sequence (G1SNX0 1-674): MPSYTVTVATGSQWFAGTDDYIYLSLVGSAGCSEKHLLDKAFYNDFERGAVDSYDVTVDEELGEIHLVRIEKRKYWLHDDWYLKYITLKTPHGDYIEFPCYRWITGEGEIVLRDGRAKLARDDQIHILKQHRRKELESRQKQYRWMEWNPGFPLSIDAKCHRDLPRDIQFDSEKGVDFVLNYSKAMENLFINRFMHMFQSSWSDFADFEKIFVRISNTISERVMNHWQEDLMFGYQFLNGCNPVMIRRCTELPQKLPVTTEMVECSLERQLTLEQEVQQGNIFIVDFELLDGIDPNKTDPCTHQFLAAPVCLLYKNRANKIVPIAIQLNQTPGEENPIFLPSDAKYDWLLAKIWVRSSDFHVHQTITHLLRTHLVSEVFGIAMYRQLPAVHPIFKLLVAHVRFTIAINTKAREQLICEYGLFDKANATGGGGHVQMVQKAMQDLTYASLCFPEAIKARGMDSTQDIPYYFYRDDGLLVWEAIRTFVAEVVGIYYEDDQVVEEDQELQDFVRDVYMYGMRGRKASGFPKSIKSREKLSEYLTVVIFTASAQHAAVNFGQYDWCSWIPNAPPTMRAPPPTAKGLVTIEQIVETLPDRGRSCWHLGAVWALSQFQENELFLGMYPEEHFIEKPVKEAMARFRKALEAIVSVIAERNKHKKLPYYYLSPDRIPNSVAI
Briefly: Inhibition of the 5-lipoxygenase of the peritoneal leukocytes of rabbits (PMNs), metabolism of 14C-arachidonate. The class given is cell-based. The following applies: rabbit peritoneal PMNs; for IC50: n.i. = no inhibition. The procedure: 1.1. Inhibition of the 5-lipoxygenase of the peritoneal leukocytes of rabbits (PMNs)
(§1) Preparation of a suspension of rabbit PMNs
(§2) The peritoneal leukocytes of rabbits are obtained and prepared according to the technique described by P. Borgeat and B. Samuelson (J. Biol. Chem. 254, n° 8, p. 2643, 1979).
(§3) Metabolism of ^14 C-Arachidonate
(§4) The incubation and extraction methods are those described by J. Y. Vanderhoek & co-workers (J. Biol. Chem. […], 21, 10064, 1980).
(§5) The percent inhibition of the 5-lipoxygenase is determined as a function of the concentration of each compound. The concentration of product that inhibits the metabolism by a factor of 50% (IC50) is inferred from those curves.

Another data set relates to prostanoids. Briefly: Inhibition of the metabolism of 14C-arachidonate in the blood platelets of rabbits: prostanoids route (TxB2, HHT). The class given is cell-based. The settings on record: rabbit blood platelets. The procedure: (§6) 1.2. Inhibition of the metabolism of
(§7) ^14 C-Arachidonate in the blood platelets of rabbits
(§8) Preparation of a platelet-rich plasma (PRP)
(§9) A 12 ml blood sample is taken, by the intracardiac route, on ACD (anticoagulant consisting of an aqueous solution containing 0.27 g citric acid, 0.5 g disodium citrate and 0.02 g glucose per 20 ml water), at a rate of 1 volume ACD per 6 volumes blood. The blood is centrifuged at 200 g for 10 minutes and the supernatant (PRP) is collected. It is again centrifuged at 1500 g for 15 minutes. The blood-platelet sediment is washed with Buffer I (NaCl: 8 g/l, Tris: 1.21 g/l, KCl: 0.2 g/l, Gelatin: 2.5 g/l; the material is heated at 90° C. to dissolve the gelatin, after which are added glucose: 1 g/l, and N,N'-ethyleneglycol bis(β-aminoethyl ether,)tetraacetic acid or EGTA: 0.075 g/l). The suspension is centrifuged at 1500 g for 10 minutes, and the sediment is taken up into Buffer II (NaCl: 8 g/l, Tris: 1.21 g/l, KCl: 0.2 g/l, CaCl2 : 0.145 g/l, MgCl2 0.2 g/l, gelatin: 2.5 g/l; this material is heated to 90° C., after which glucose (1 g/l) is added, and the pH is adjusted to a value of 7.4 with 0.1 N HCl),
as §3
(§10) The blood-platelet suspension (0.4 ml/tube) is pre-incubated at 37° C. for 15 minutes, either with 10 μl DMSO (reference), or with varying concentrations of products to be treated dissolved in 10 μl DMSO.
(§11) The incubation is effected in the presence of ^14 C-Arachidonate (1 μg, 0.2 μCi) distributed within 0.1 ml Buffer II. It is blocked after 15 minutes by means of 50 μl citric acid and 250 μl saturated NaCl.

The next data set concerns edema of the ear in rats. The data set is described as follows: Cutaneous anti-inflammatory activity: inhibition of the edema of the ear in rats following topic administration. The settings on record: rat ear edema, topical. The class given is in vivo. As for the experimental part:
Cutaneous anti-inflammatory activity determined by the inhibition of the edema of the ear in rats following topic administration. This activity is determined by means of the method according to G. Tonelli and co-workers (Endocrinology, 1965, 77, 625-634). The effect of various concentrations of each compound is determined in at least seven rats. Inflammation is inhibited by a factor of 50% at the following concentrations: […]

In another data set the target is T2, 12-lipoxygenase (Oryctolagus cuniculus, UniProt G1U492).
T2 construct: metabolism of ^14 C-Arachidonate in the blood platelets of rabbits; endogenous in cells; host or cells: washed rabbit blood platelets (from platelet-rich plasma)
T2 sequence (G1U492 1-663): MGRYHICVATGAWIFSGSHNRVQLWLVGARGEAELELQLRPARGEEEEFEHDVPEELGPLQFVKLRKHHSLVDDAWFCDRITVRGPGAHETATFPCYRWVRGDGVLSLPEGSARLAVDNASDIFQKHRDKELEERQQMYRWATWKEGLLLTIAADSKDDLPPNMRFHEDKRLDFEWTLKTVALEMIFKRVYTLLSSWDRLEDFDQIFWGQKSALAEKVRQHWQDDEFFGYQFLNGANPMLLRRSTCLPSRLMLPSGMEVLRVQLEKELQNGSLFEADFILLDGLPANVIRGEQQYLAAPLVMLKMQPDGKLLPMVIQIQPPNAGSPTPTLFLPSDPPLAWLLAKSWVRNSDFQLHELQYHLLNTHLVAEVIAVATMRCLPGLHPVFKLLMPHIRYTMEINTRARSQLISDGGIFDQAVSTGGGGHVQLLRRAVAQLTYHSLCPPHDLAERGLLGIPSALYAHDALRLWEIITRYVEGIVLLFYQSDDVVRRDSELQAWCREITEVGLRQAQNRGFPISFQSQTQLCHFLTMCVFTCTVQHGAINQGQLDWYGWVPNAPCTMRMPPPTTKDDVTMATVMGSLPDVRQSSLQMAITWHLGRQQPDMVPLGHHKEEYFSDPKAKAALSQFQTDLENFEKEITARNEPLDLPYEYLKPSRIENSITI
Briefly: Inhibition of the metabolism of 14C-arachidonate in the blood platelets of rabbits: 12-lipoxygenase route (12-HETE). The settings on record: rabbit blood platelets; 12 HETE; n.i. = no inhibition. The class given is cell-based. As for the experimental part: as §6, §7, §8, §9, §3, §10, §11

A short description of data set [2]: Acute toxicity, intraperitoneal route. The settings on record: mouse, in vivo, ip, in DMSO, 14 days observation, with confidence interval. The procedure:
The test animals used are Swiss mice (NMRI-Han). The average weight of the male animals is 30 g, that of the females is 25 g.
The acute toxicity investigation was conducted by the intraperitoneal route.
The compounds, dissolved in DMSO, are injected under the ventral side of the peritoneum, at increasing dosages.
The reference group is administered DMSO under the same conditions (2.5 ml.kg^-1).
Following Table III gives the values of the 50% lethal dosages together with the […].

In another data set the test system is 15 HETE. Briefly: Metabolism of 14C-arachidonate in rabbit peritoneal PMNs: 15 HETE. The class given is cell-based. The settings on record: 15 HETE formation, n.i. = no inhibition. The procedure:
as §1, §2, §3, §4, §5

Data set [3] concerns leukocytic infiltration in the aqueous humor. The following applies: in vivo; cited from earlier work.

Read-outs that look alike come from different tables or passages of the source. Where only a bound is given, the exact number is not on record here.

For the compound `CC(=NNc1nccs1)c1cccs1` [Example 3b], the “inhibition of the metabolism of the 5-lipoxygenase route (chromatographic profile, FIG. 2b)” value in data set [1] (50 μM) is reported as “inhibition of the metabolism of the 5-lipoxygenase route”. For the same compound, the half-inhibitory concentration (IC50) was 10 µM in data set [1] (5 HETE formation, read-out: IC50 in the PMNs, 5 HETE); 13 µM in data set [1] (LTB4 formation, read-out: IC50 in the PMNs, LTB4); above 50 µM with prostanoids (HHT, read-out: IC50 in the blood platelets, HHT); 10 µM with prostanoids (thromboxane B2, read-out: IC50 in the blood platelets, T × B2); 10 µM against 12-lipoxygenase; 40 µM in the data set with 15 HETE. Also, the “concentration at which inflammation is inhibited by a factor of 50%” value in the data set on edema of the ear in rats (at least seven rats) is 16 mg/mL; in the data set with edema of the ear in rats (molar value in parentheses), 57 µmol/mL. For the same compound, the LD50 at 336 h is 155 ± 32 mg/kg in data set [2] (female Swiss mice, read-out: Parenteral LD50, female mice) and 105 ± 24 mg/kg in data set [2] (male Swiss mice, read-out: Parenteral LD50, male mice).
Turning to `COc1ccc2c(c1)c(CC(=O)O)c(C)n2C(=O)c1ccc(Cl)cc1` [Indomethacin], in data set [3], the “leukocytic infiltration in the aqueous humor” value is “increases leukocytic infiltration in the aqueous humor”. Moreover, the “concentration at which inflammation is inhibited by a factor of 50%” value in the data set on edema of the ear in rats (at least seven rats) is “no inhibition”.
